From PubChem BioAssay AID1918995 (Molecular Pharmacology Branch, DTP, NCI, 2023)
Values belong to the compound of their own block, whether it stands above or below them.

Test system: 324938-238-R-J1-PDC complex spheroid growth, % test/control
Assay: Anticancer human tumor 324938-238-R-J1-PDC patient-derived bladder carcinoma cell line growth inhibition [AhR]
Conditions: for viability, T/C: stronger effect = lower value
Summary of the method: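 Spheroids combined tumor cells with HUVEC endothelial cells and human MSCs as stroma. AhR antagonists were paired with standard or investigational drugs, each dosed in half-log steps down from near clinical Cmax, or from 10 microM where Cmax was unknown.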

[1] = curve of first compound, second compound 0.1 µM
[2] = curve of first compound, second compound 0.316 µM
[3] = curve of first compound, second compound 1 µM
[4] = curve of first compound, second compound 3.16 µM
[5] = curve of first compound, second compound 10 µM
[6] = second compound 0.1 µM, first compound 0.0316 µM
[7] = second compound 0.1 µM, first compound 0.1 µM
[8] = second compound 0.1 µM, first compound 0.316 µM
[9] = second compound 0.1 µM, first compound 1 µM
[10] = second compound 0.1 µM, first compound 3.16 µM
[11] = second compound 0.1 µM, first compound 10 µM
[12] = second compound 0.316 µM, first compound 0.0316 µM
[13] = second compound 0.316 µM, first compound 0.1 µM
[14] = second compound 0.316 µM, first compound 0.316 µM
[15] = second compound 0.316 µM, first compound 1 µM
[16] = second compound 0.316 µM, first compound 3.16 µM
[17] = second compound 0.316 µM, first compound 10 µM
[18] = second compound 1 µM, first compound 0.0316 µM
[19] = second compound 1 µM, first compound 0.1 µM
[20] = second compound 1 µM, first compound 0.316 µM
[21] = second compound 1 µM, first compound 1 µM
[22] = second compound 1 µM, first compound 3.16 µM
[23] = second compound 1 µM, first compound 10 µM
[24] = second compound 3.16 µM, first compound 0.0316 µM
[25] = second compound 3.16 µM, first compound 0.1 µM
[26] = second compound 3.16 µM, first compound 0.316 µM
[27] = second compound 3.16 µM, first compound 1 µM
[28] = second compound 3.16 µM, first compound 3.16 µM
[29] = second compound 3.16 µM, first compound 10 µM
[30] = second compound 10 µM, first compound 0.0316 µM
[31] = second compound 10 µM, first compound 0.1 µM
[32] = second compound 10 µM, first compound 0.316 µM
[33] = second compound 10 µM, first compound 1 µM
[34] = second compound 10 µM, first compound 3.16 µM
[35] = second compound 10 µM, first compound 10 µM
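Also: spheroids exposed to agents for seven days before viability read.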

IC50 (compound alone, run of 07/18/2022): 5.31 µM [middle of 23 runs]
SMILES: Cc1cncc(-c2nc(NCCc3c[nH]c4ccccc34)c3ncn(C(C)C)c3n2)c1

IC50 [1]: 123 nM
IC50 [2]: 138 nM
IC50 [3]: 135 nM
IC50 [4]: 96.2 nM
IC50 [5]: 125 nM
SMILES: O=C(C=Cn1cnc(-c2cc(C(F)(F)F)cc(C(F)(F)F)c2)n1)NNc1cnccn1 + CC(CO)NC(=O)c1cc(-c2ccc(Cl)cc2)nn(-c2cnn(C)c2)c1=O
viability, T/C (second compound 0.1 µM, first compound 0.00949 µM): 83.2%
viability, T/C (second compound 0.1 µM, first compound 0.03 µM): 77.4%
viability, T/C (second compound 0.1 µM, first compound 0.0949 µM): 51.8%
viability, T/C (second compound 0.1 µM, first compound 0.3 µM): 34.9%
viability, T/C (second compound 0.1 µM, first compound 0.949 µM): 17.8%
viability, T/C (second compound 0.1 µM, first compound 3 µM): 11.8%
viability, T/C (second compound 0.316 µM, first compound 0.00949 µM): 75.7%
viability, T/C (second compound 0.316 µM, first compound 0.03 µM): 87.5%
viability, T/C (second compound 0.316 µM, first compound 0.0949 µM): 53.8%
viability, T/C (second compound 0.316 µM, first compound 0.3 µM): 33.5%
viability, T/C (second compound 0.316 µM, first compound 0.949 µM): 19.8%
viability, T/C (second compound 0.316 µM, first compound 3 µM): 12.6%
viability, T/C (second compound 1 µM, first compound 0.00949 µM): 82.3%
viability, T/C (second compound 1 µM, first compound 0.03 µM): 76.4%
viability, T/C (second compound 1 µM, first compound 0.0949 µM): 58%
viability, T/C (second compound 1 µM, first compound 0.3 µM): 31.1%
viability, T/C (second compound 1 µM, first compound 0.949 µM): 23.1%
viability, T/C (second compound 1 µM, first compound 3 µM): 14.2%
viability, T/C (second compound 3.16 µM, first compound 0.00949 µM): 69.1%
viability, T/C (second compound 3.16 µM, first compound 0.03 µM): 65%
viability, T/C (second compound 3.16 µM, first compound 0.0949 µM): 50.7%
viability, T/C (second compound 3.16 µM, first compound 0.3 µM): 27.2%
viability, T/C (second compound 3.16 µM, first compound 0.949 µM): 19%
viability, T/C (second compound 3.16 µM, first compound 3 µM): 12.8%
viability, T/C (second compound 10 µM, first compound 0.00949 µM): 62%
viability, T/C (second compound 10 µM, first compound 0.03 µM): 61.8%
viability, T/C (second compound 10 µM, first compound 0.0949 µM): 57.7%
viability, T/C (second compound 10 µM, first compound 0.3 µM): 31.3%
viability, T/C (second compound 10 µM, first compound 0.949 µM): 24.8%
viability, T/C (second compound 10 µM, first compound 3 µM): 11.4%

IC50 [1]: 3830 nM
IC50 [2]: 2540 nM
IC50 [3]: 3990 nM
IC50 [4]: 3250 nM
IC50 [5]: 2710 nM
SMILES: Nc1ccccc1NC(=O)c1ccc(CNC(=O)OCc2cccnc2)cc1 + CC(CO)NC(=O)c1cc(-c2ccc(Cl)cc2)nn(-c2cnn(C)c2)c1=O
viability, T/C [6]: 116%
viability, T/C [7]: 122%
viability, T/C [8]: 99.1%
viability, T/C [9]: 66.3%
viability, T/C [10]: 63.9%
viability, T/C [11]: 26.3%
viability, T/C [12]: 118%
viability, T/C [13]: 112%
viability, T/C [14]: 95.2%
viability, T/C [15]: 61.4%
viability, T/C [16]: 52.4%
viability, T/C [17]: 26.7%
viability, T/C [18]: 99.2%
viability, T/C [19]: 109%
viability, T/C [20]: 102%
viability, T/C [21]: 69.5%
viability, T/C [22]: 61.6%
viability, T/C [23]: 25.7%
viability, T/C [24]: 88%
viability, T/C [25]: 90.8%
viability, T/C [26]: 84.9%
viability, T/C [27]: 63.9%
viability, T/C [28]: 56.4%
viability, T/C [29]: 7.19%
viability, T/C [30]: 82.2%
viability, T/C [31]: 90.8%
viability, T/C [32]: 80.9%
viability, T/C [33]: 63.9%
viability, T/C [34]: 50%
viability, T/C [35]: 1.83%

IC50 [1]: 9560 nM
IC50 [2]: > 10000 nM
IC50 [3]: > 10000 nM
IC50 [4]: 6860 nM
IC50 [5]: 5140 nM
SMILES: O=C(c1cc(Cc2n[nH]c(=O)c3ccccc23)ccc1F)N1CCN(C(=O)C2CC2)CC1 + CC(CO)NC(=O)c1cc(-c2ccc(Cl)cc2)nn(-c2cnn(C)c2)c1=O
viability, T/C [6]: 97.6%
viability, T/C [7]: 104%
viability, T/C [8]: 85.3%
viability, T/C [9]: 75.6%
viability, T/C [10]: 66.9%
viability, T/C [11]: 48.6%
viability, T/C [12]: 83.3%
viability, T/C [13]: 81%
viability, T/C [14]: 79.2%
viability, T/C [15]: 69.8%
viability, T/C [16]: 65.3%
viability, T/C [17]: 52%
viability, T/C [18]: 82%
viability, T/C [19]: 77.1%
viability, T/C [20]: 75.1%
viability, T/C [21]: 70.6%
viability, T/C [22]: 65.7%
viability, T/C [23]: 54%
viability, T/C [24]: 65.8%
viability, T/C [25]: 69.8%
viability, T/C [26]: 73.7%
viability, T/C [27]: 57.8%
viability, T/C [28]: 53.9%
viability, T/C [29]: 48.4%
viability, T/C [30]: 58.8%
viability, T/C [31]: 63.8%
viability, T/C [32]: 55.5%
viability, T/C [33]: 50.5%
viability, T/C [34]: 54.1%
viability, T/C [35]: 47.5%
